These results are taken from ChEMBL document CHEMBL1201862, “PubChem BioAssay data set” (2004).

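Test compounds were applied to cells in 96-well plates for 48 hours at 5 doses. Abbreviation: GI50, concentration required for 50% inhibition of growth.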 Active and inactive are the calls of the source. No stated cut-off is given here; in the data, active = GI50 up to about 1.1 µM and inactive = higher.

What all share (assay): growth of human tumour cells (NCI), 48 h
The subject of assay [1] is 786-0.
For assay [2], the system named is CAKI-1.
Assay [3] relates to DLD-1.
For assay [4], the system named is K562.
Assay [5] deals with KM12.
Assay [6] deals with M14.
The test system of assay [7] is NCI-H460.
Assay [8] has as its system NCI-H522.
In assay [9] the test system is OVCAR-4.
Assay [10] concerns OVCAR-8.
Assay [11] relates to RPMI-8226.
The test system of assay [12] is SF-295.
Assay [13] deals with SNB-75.
The test system of assay [14] is UACC-257.
In assay [15] the test system is BT-549.
Assay [16] concerns HOP-92.
The test system of assay [17] is MDA-MB-231.
Assay [18] deals with MDA-MB-435.
Assay [19] relates to PC-3.
Assay [20] relates to T47D.

With `CCCCCCCCCCCc1c(O)c(=O)c2c(oc3c(=O)c(CCCCCCCCCCC)c(O)c(=O)c3n2-c2ccc(N(C)C)cc2)c1=O`, the GI50 in assay [1] is 17.5 µM (inactive); in assay [2], 15.7 µM (inactive); in assay [3], 18.8 µM (inactive); in assay [4], 52.8 µM (inactive); in assay [5] it was 12.9 µM (inactive); in [6], 16.3 µM (inactive). The GI50 in assay [7] is 18.6 µM (inactive); in [8], 58.3 µM (inactive); in assay [9] it was 16.5 µM (inactive); in assay [10], 23.3 µM (inactive); in assay [11], 91.2 µM (inactive); in assay [12], 21.8 µM (inactive). The GI50 in assay [13] is 23.7 µM (inactive); in [14], 20 µM (inactive).

Consider `COc1ccc(O)c2c1C(=O)CCCC2=O`, for which the GI50 in assay [1], in [2], in assay [3], in assay [4], in assay [5] and in assay [6] was > 100 µM (inactive) each time. In addition, the GI50 in assay [7], in [8], in assay [9], in [10], in [11] and in [12] was > 100 µM (inactive) throughout. Also, in assay [14], the GI50 is > 100 µM (inactive).

For the molecule `O=C1[C@H]2ON(c3ccccc3)C(c3cccc([N+](=O)[O-])c3)[C@H]2C(=O)N1c1ccc(Cc2ccc(N3C(=O)[C@@H]4ON(c5ccccc5)C(c5cccc([N+](=O)[O-])c5)[C@@H]4C3=O)cc2)cc1` (stereo partly drawn), the GI50 is > 100 µM (inactive) in assay [1]; 38.6 µM (inactive) in assay [2]; > 100 µM (inactive) in [3]; > 100 µM (inactive) in assay [4]; > 100 µM (inactive) in [5]; 21.6 µM (inactive) in assay [6]. The GI50 in assay [7], in [8], in assay [9], in assay [10], in assay [11] and in [12] was > 100 µM (inactive) throughout. Besides, the GI50 in assay [13] and in assay [14] was > 100 µM (inactive) throughout.

As for `O=C(NCCCCCCCCNC(=O)Nc1cccc2ccccc12)Nc1cccc2ccccc12`, the GI50 in [1] was 10.1 µM (inactive); in [15], 31.6 µM (inactive); in assay [2], 40.9 µM (inactive); in assay [16], 6.92 µM (inactive); in assay [4], 14.5 µM (inactive); in [5], > 100 µM (inactive). Besides, the GI50 in assay [6] was > 100 µM (inactive); in assay [17] it was 7.69 µM (inactive); in assay [18], 17.3 µM (inactive); in assay [7], 3.5 µM (inactive); in assay [8], 16.1 µM (inactive); in assay [9], 1.45 µM (inactive). The GI50 is 18.5 µM (inactive) in assay [10]; 72.1 µM (inactive) in assay [19]; > 100 µM (inactive) in [11]; 28.5 µM (inactive) in [12]; 35.5 µM (inactive) in assay [13]; 24 µM (inactive) in assay [20]. Also, in assay [14], the GI50 is > 100 µM (inactive).

Regarding `Oc1ccc2ccccc2c1CN(Cc1c(O)ccc2ccccc12)C1CCCCC1`, the GI50 in assay [1] was 15.6 µM (inactive); in [15] it was 19.8 µM (inactive); in [2], 16.6 µM (inactive); in assay [16], 18 µM (inactive); in assay [4], 19.5 µM (inactive); in assay [5] it was 28.2 µM (inactive). The GI50 in assay [6] was 15.2 µM (inactive); in [17], 18.5 µM (inactive); in assay [18] it was 19.2 µM (inactive); in assay [7], 20 µM (inactive); in [8] it was 13.4 µM (inactive); in assay [9], 18.7 µM (inactive). The GI50 in assay [10] was 21.3 µM (inactive); in assay [19] it was 17 µM (inactive); in [11], 25.1 µM (inactive); in [12], 37 µM (inactive); in [13], 21.8 µM (inactive); in assay [20] it was 31.9 µM (inactive). Also, the GI50 in assay [14] is 15.3 µM (inactive).

On to `Cc1ccc(-c2cn3c(nc4ccccc43)c(C)n2)cc1`, for which the GI50 was 25.8 µM (inactive) in assay [1]; 25.9 µM (inactive) in [15]; > 100 µM (inactive) in [2]; 8.93 µM (inactive) in [16]; 43.5 µM (inactive) in assay [4]; > 100 µM (inactive) in [5]. Moreover, the GI50 in assay [6] was 39.5 µM (inactive); in assay [17], > 94.6 µM (inactive); in assay [18], 16 µM (inactive); in [7], 26.7 µM (inactive); in assay [8] it was 31.2 µM (inactive); in [9], 59 µM (inactive). Also, the GI50 was 36 µM (inactive) in assay [10]; 46.6 µM (inactive) in [19]; 30.7 µM (inactive) in [11]; > 58.1 µM (inactive) in assay [12]; > 47 µM (inactive) in assay [13]; 4.2 µM (inactive) in assay [20]. Moreover, the GI50 in assay [14] was > 100 µM (inactive).

On to `CN(C)CCNC(=O)c1cccc2nc3cccc(F)c3nc12`, for which the GI50 in assay [1] is 0.653 µM (active); in assay [15], 2.23 µM (inactive); in assay [2], 0.973 µM (active); in assay [16] it was 1.22 µM (inactive); in assay [4], 1.29 µM (inactive); in [5] it was 1.42 µM (inactive). In addition, the GI50 is 2.01 µM (inactive) in assay [6]; 1.32 µM (inactive) in assay [17]; 1.56 µM (inactive) in [18]; 0.579 µM (active) in [7]; 1.05 µM (active) in assay [8]; 1.47 µM (inactive) in assay [9]. The GI50 in [10] was 0.843 µM (active); in assay [19] it was 1.38 µM (inactive); in assay [11] it was 0.8 µM (active); in [12], 1.52 µM (inactive); in assay [13], 2.62 µM (inactive); in assay [20] it was 3.31 µM (inactive). In addition, in assay [14], the GI50 is 1.39 µM (inactive).

Take `CCCN(CCC)c1c([N+](=O)[O-])cc(C(=O)N(CC)CC)cc1[N+](=O)[O-]`: the GI50 in assay [1] is 27.5 µM (inactive); in [2], 25.1 µM (inactive); in assay [3] it was 17.6 µM (inactive); in assay [4], 12.6 µM (inactive); in [6] it was 23.2 µM (inactive); in assay [7], 15.9 µM (inactive). In addition, the GI50 in assay [8] was 10.2 µM (inactive); in [10], 18.3 µM (inactive); in [11] it was 11.9 µM (inactive); in [12], 23 µM (inactive); in assay [13] it was 21.3 µM (inactive); in assay [14], 16.3 µM (inactive).

Take `COc1ccccc1/C=N/Nc1nnc2c3ccccc3c3ncccc3c2n1`: the GI50 in [1] was 28.1 µM (inactive); in assay [15], 41.7 µM (inactive); in assay [2], > 100 µM (inactive); in assay [16] it was 14.6 µM (inactive); in assay [4], 70.8 µM (inactive); in [5], > 100 µM (inactive). For the same molecule, the GI50 is 50.5 µM (inactive) in assay [6]; 26.2 µM (inactive) in assay [17]; > 100 µM (inactive) in assay [18]; 45.1 µM (inactive) in assay [7]; 70.6 µM (inactive) in assay [8]; 17.8 µM (inactive) in assay [9]. Moreover, the GI50 in assay [10] is 30 µM (inactive); in assay [19], > 100 µM (inactive); in [11] it was 69.2 µM (inactive); in assay [12], 6.14 µM (inactive); in assay [13], 19.3 µM (inactive); in assay [20], 39.7 µM (inactive). In addition, the GI50 in assay [14] was > 100 µM (inactive).
